Experimental data taken from US9145376B2, “Quinazolinone inhibitors of dynein” (The Rockefeller University, priority 2011, dated 2015).

How the values were obtained:
Assay type in all cases: cell-based
[1] = test system: primary cilia of Shh-EGFP cells; assay: Quantitative assessment of ciliogenesis (Arl13b staining, cilia size); settings: 24 hours
[2] = test system: mitotic spindle of Shh-EGFP (NIH-3T3) cells (cytoplasmic dynein 1); assay: Imaging of mitotic spindle assembly; settings: 50 μM, 60 minutes, MG132-arrested cells
Text: In addition to trafficking macromolecules out of the primary cilium, cytoplasmic dynein complexes have other cellular functions. For example, cytoplasmic dynein 1 acts in concert with dynactin and the nuclear protein NuMA to crosslink and focus the minus ends of microtubules within the mitotic spindle. These actions create the canonical fusiform shape and localize γ-tubulin-containing, microtubule-nucleating complexes to the spindle poles. Cytoplasmic dynein 1 inhibition by blocking antibodies or dominant negative constructs disrupts mitotic spindle assembly, resulting in splayed microtubule ends and reduced γ-tubulin recruitment. To determine whether ciliobrevins can recapitulate these phenotypes, we treated a metaphase-enriched population of NIH-3T3 cells with 50 μM of either example 31 or […] for one hour and examined their mitotic structures by confocal immunofluorescence microscopy.
Shh-EGFP cells were cultured until they achieved approximately 70% confluency and then split 1:5 into 24-well plates containing, poly-D-lysine-coated 12-mm glass coverslips in DMEM containing 10% calf serum, 100 U/mL penicillin, and 0.1 mg/mL streptomycin. […]

[3] = test system: ciliary IFT88 in Shh-EGFP cells (cytoplasmic dynein 2-dependent retrograde transport); assay: Quantitative assessment of IFT88 trafficking; settings: 50 μM, one hour, compared to DMSO or compound 16
Text: As a microtubule-based compartment, the cilium utilizes specific motor proteins to move macromolecules along its axoneme. Intraflagellar transport (IFT) of cargo can be resolved into anterograde trafficking, which requires the plus end-directed kinesin-2 motor and the IFTB multisubunit complex, and retrograde trafficking, which utilizes the minus end-directed cytoplasmic dynein 2 motor and the IFTA complex. The genetic disruption of individual kinesin-2, cytoplasmic dynein 2, or IFT complex subunits has been previously found to induce ciliary defects and perturb Hh signaling. […] To confirm that ciliobrevins target cilia trafficking in general rather than a Hh pathway-specific process, we examined the effect of ciliobrevins on the subcellular localization of IFTB component IFT88, which requires cytoplasmic dynein 2-dependent retrograde transport for its return to the ciliary basal body.
Shh-EGFP cells were seeded into 24-well plates containing poly-D-lysine-coated 12-mm glass coverslips at a density of 30,000 cells/well and cultured for 24 hours in DMEM containing 10% calf serum, 100 U/mL penicillin, and 0.1 mg/mL streptomycin. […] Ciliary IFT levels were quantified essentially as described for Gli2 though no background was subtracted. At least 25 cilia were analyzed to determine the average ciliary IFT88 level for each experimental condition.

N#C/C(C(=O)c1ccccc1)=C1\NC(=O)c2ccccc2N1 [Example 16, 3-oxo-2-(4-oxo-3,4-dihydroquinazolin-2(1H)-ylidene)-3-phenylpropanenitrile]
cilia size in response to increasing concentration (FIG. 1) [1]: no decrease in cilia size | mitotic spindle morphology (γ-tubulin-positive pole focusing) [2]: normal spindle morphologies

N#C/C(C(=O)c1ccc(Cl)cc1Cl)=C1\NC(=O)c2ccc(Cl)cc2N1 [Example 31, 2-(7-chloro-4-oxo-3,4-dihydroquinazolin-2(1H)-ylidene)-3-(2,4-dichlorophenyl)-3-oxo-propanenitrile]
IFT88 levels at the distal tip of primary cilia [3]: significant increase | mitotic spindle morphology (γ-tubulin-positive pole focusing) [2]: failed to achieve mitotic spindles with focused γ-tubulin-positive poles

N#C/C(C(=O)c1ccc(Cl)cc1Cl)=C1\NC(=O)c2ccccc2N1 [Example 1, 3-(2,4-dichlorophenyl)-3-oxo-2-(4-oxo-3,4-dihydroquinazolin-2(1H)-ylidene)propanenitrile]
cilia size in response to increasing concentration (FIG. 1) [1]: dose-dependent decrease in cilia size
